# Literature values, collected in patent US20030134332A1, “Diagnosis of endothelial dysfunction by nitric oxide bioactivity index” (priority 2001, published 2003).
# What was measured:
# [1] = test system: plasma isoprostane (oxidant stress marker); conditions: diabetic men, 600 mg twice daily for seven days
# [2] = test system: wound healing in diabetic mice
substance,measurement,setting,value
"2-(2,3-dihydro-5-acetoxy-4,6,7-trimethylbenzofuranyl) acetic acid [raxofelast]",fall of plasma isoprostane levels in diabetics,[1],50%
same,effect on wound healing,[2],stimulates wound healing
